{
  "source": "patent US10912759B2",
  "about": "(priority 2018, dated 2021)",
  "key": {"[1]": {"tested_on": "SprX", "type": "cell-based, S. aureus", "conditions": "1% (w/v), one hour, RNA level by RT-PCR", "excerpt": "(§1) FIG. 10 is a graph showing the effect of the topical gel on S. aureus gene expression compared to mupirocin treatment. Results are expressed as percent change in intensity values.\n(§2) FIG. 11 is a graph showing the effect of the topical gel on S. aureus gene expression compared to control and mupirocin treatment. Results are expressed as gene expression intensity ratios.\n(§3) In an effort to elucidate the mechanism of action of the topical gel on S. aureus as well as to examine any commonalities or differences in Staphylococcal response to treatment, transcriptional response was evaluated. S. aureus was either 1) grown alone as a control, 2) grown in 1% (w/v) topical gel, or 3) grown in 1% (w/v) Mupirocin for one hour. Cells were harvested and total RNA was extracted. Reverse Transcriptase polymerase chain reaction using gene specific primers was utilized to determine the RNA levels for the specific genes RecA, SprX, and PsrA. RecA is a protein specific for SOS response in Staphylococcus indicative of a need to repair DNA damage. SprX is a small RNA associated with Staphylococcus antibiotic resistance. PsrA regulates expression of proteins in the cell wall of Staphylococcus which are both essential for bacterial survival and antibiotic resistance."}, "[2]": {"tested_on": "PsrA", "test": "S. aureus gene expression by RT-PCR", "type": "cell-based", "conditions": "1% (w/v), one hour, RNA level by RT-PCR", "excerpt": "as §1, §2, §3"}, "[3]": {"tested_on": "S. aureus", "test": "MIC and MBC of topical gel vs. Mupirocin", "type": "cell-based, Staphylococcus aureus", "conditions": "0-10% w/v, overnight at 37° C., aliquots plated, lack of any growth", "experimental": "MIC was determined by visually observing where turbid growth stopped, MBC was determined by taking aliquots from each tube, plating onto media, and observation for lack of any growth.\nMupirocin is the standard ointment for treatment of S. aureus topical infections. […] MIC was determined by visually observing where turbid growth stopped, MBC was determined by taking aliquots from each tube, plating onto media, and observation for lack of any growth."}},
  "data": [
    {"compound": "C/C(=C\\C(=O)OCCCCCCCCC(=O)O)C[C@@H]1OC[C@H](C[C@@H]2O[C@H]2[C@@H](C)[C@H](C)O)[C@@H](O)[C@H]1O", "note": "[Mupirocin]", "values": [
      {"measurement": "reduction of expression of SprX", "setting": "[1]", "result": 78, "unit": "%"},
      {"measurement": "reduction of expression of PsrA", "setting": "[2]", "result": 56, "unit": "%"},
      {"measurement": "MBC values compared to topical gel", "setting": "[3]", "result": "lower MBC values"}
    ]}
  ]
}
